{"source": "patent EP4663191A1", "about": "“USE OF TYROSINE KINASE INHIBITOR” (Qilu Animal Health Products Co., Ltd., priority 2023, dated 2024)", "key": {"[1]": {"test_system": "mouse mast cell tumor P815 cells", "test": "In vivo efficacy in DBA/2 mouse model of subcutaneous homologous transplantation of P815 cells", "conditions": "for Tumor volume (mm^3): average ±SEM; for TGI: Day 8, vs vehicle control", "text": "Test sample: the dimaleate of the compound of formula (I) of the present application (content: 99.7%), and Toceranib phosphate (content: 98.2%, commercially available), the concentration and dosage of administration of the test sample prepared in the following implementation are all calculated in terms of free alkali.\nTest animal: the species is mouse; the strain is DBA/2 mouse; the age is 6-8 weeks old, and the weight is 19-24 g; and the gender is female.\nExperimental methods and steps: mouse mast cell tumor P815 cells (ATCC-TIB-64) were adherent and cultured in vitro. The culture conditions were DMEM medium, 10 vol% fetal bovine serum, 1 vol% double antibody, and cultured in a cell incubator at 37 °C with 5% CO2. Conventional digestion treatment and passage were carried out twice a week with trypsin-EDTA. When the cell saturation reached 80-90% and the quantity satisfied the requirements, the cells were collected, counted and inoculated.\n0.1 mL of PBS containing 5×10^5 P815 cells was subcutaneously inoculated into the subcutaneous area of the right forelimb axilla of each mouse. At day 8 after cell inoculation, when the average tumor volume reached 100 mm^3, group administration was started. The experiment was grouped into a negative control group (without an active ingredient), an administration group, and a positive control group (with the active ingredient Toceranib), with 8 mice in each group. The negative control (vehicle), the dimaleate of the compound of formula (I), and Toceranib phosphate were administered orally once daily for an 8-day administration period. Health status and mortality of animals were monitored every day. Routine examinations included observing the effects of tumor growth and drug treatment on daily behavioral performance of animals, such as behavioral activities, food and water intake (only visually), weight changes (measuring weight twice a week), appearance signs or other abnormal conditions. Table 1. Preparation methods of the test samples\nTable 2. Grouping of experimental animals and administration protocols\nThe experimental indicators were to examine whether the tumor growth was inhibited, delayed or cured. The diameter of the tumor was measured with a vernier caliper. The calculation formula for tumor volume was: V = 0.5a × b^2 , [formula] wherein a and b represented the long diameter and the short diameter of the tumor, respectively. The anti-tumor efficacy of the compound was determined by TGI (%). TGI (%) reflects the rate of tumor growth inhibition. Calculation of TGI (%): TGI (%) = [1-(Average tumor volume at the end of administration in a certain treatment group - Average tumor volume at the start of administration in this treatment group) / (Average tumor volume at the end of treatment in the vehicle control group - Average tumor volume at the start of treatment in the vehicle control group)] ×100%."}, "canine mast cell tumor": {"test_system": "canine mast cell tumor", "test": "Anti-tumor effect in dogs with mast cell tumors (clinical cases)", "assay_type": "in vivo", "description": "(§1) Since May 2021, a total of 14 dogs with mast cell tumors have been collected and enrolled for treatment with a dimaleate of the compound of formula (I). Table 4: Clinical staging criteria for canine cutaneous mast cell tumors\n(§2) The affected dogs with mast cell tumor were administered with the drug of the dimaleate of the compound of formula (I) at a dose of 2.0 mg/kg to 3.25 mg/kg (all doses were calculated based on free base, the same below), orally once every other day. For affected dogs with assessable solid tumors, baseline assessment was performed before the first trial medication. After the administration of the first trial medication, mass measurement and blood routine examination were performed every 2 weeks, and blood biochemical examination and imaging examination were performed every 4 weeks to evaluate the response to tumor treatment until disease progression, intolerable drug withdrawal due to treatment-related side effects, or death of enrolled dogs, and to evaluate the efficacy and safety of the compound of formula (I) in the treatment of a canine mast cell tumor and a breast tumor. The primary observation endpoints: objective response rate (ORR), disease control rate (DCR), progression-free survival (PFS), and overall survival (OS); complete response (CR), partial response (PR), stable disease (SD), and progressive disease (PD)."}, "[2]": {"test": "Adverse reactions and safety in dogs with mast cell tumors under treatment (VCOG-CTCAE)", "assay_type": "in vivo", "description": "as §1, §2\n(Adverse event assessment criteria refer to VCOG-CTCAE (Veterinary cooperative oncology group-common terminology criteria for adverse events (VCOG-CTCAE) following chemotherapy or biological antineoplastic therapy in dogs and cats v1.1. Vet Comp Oncol. 2016))."}, "[3]": {"test_system": "mouse mast cell tumor cells P815 cells (ATCC-TIB-64)", "test": "MTT assay (thiazolyl blue colorimetric assay), inhibition of tumor cell proliferation", "assay_type": "cell-based", "description": "Test sample: the dimaleate of the compound of formula (I) of the present application.\nThe inhibition effect of the dimaleate of the compound of formula (I) on the growth of mouse mast cell tumor cells P815 cells (ATCC-TIB-64) was detected by MTT assay (thiazolyl blue colorimetric assay), and IC50 (half inhibitory concentration) was calculated and obtained."}, "[4]": {"conditions": "14 dogs, 2.0 mg/kg to 3.25 mg/kg orally once every other day, n=4"}}, "note": "“And” between values parts separate entries of the source, which are not always exact repeats. Equal values may be shown once.", "data": [{"smiles": "Cc1[nH]c(/C=C2\\C(=O)Nc3ccc(F)cc32)c(C)c1C(=O)NCCN1CCCC1", "note": "[Toceranib, reference compound]", "values": [{"measurement": "Tumor volume (mm^3)", "setting": "[1]; Day 0 after administration, 40mg/kg PO QD", "result": "100±4", "unit": "mm^3"}, {"measurement": "Tumor volume (mm^3)", "setting": "[1]; Day 2 after administration, 40mg/kg PO QD", "result": "127±6", "unit": "mm^3"}, {"measurement": "Tumor volume (mm^3)", "setting": "[1]; Day 4 after administration, 40mg/kg PO QD", "result": "231±14", "unit": "mm^3"}, {"measurement": "Tumor volume (mm^3)", "setting": "[1]; Day 6 after administration, 40mg/kg PO QD", "result": "299±15", "unit": "mm^3"}, {"measurement": "TGI", "setting": "[1]; 40 mg/kg PO QD, p < 0.001", "result": 43.38, "unit": "%"}, {"measurement": "Tumor volume (mm^3)", "setting": "[1]; Day 8 after administration, 40mg/kg PO QD, 40 mg/kg", "result": "510 mm^3 and 510±38 mm^3"}]}, {"smiles": "Cc1[nH]c(/C=C2\\C(=O)Nc3ccc(F)cc32)c(C)c1NC(=O)CCN1CCN(C)CC1", "note": "[dimaleate of the compound of formula (I), N-(5-((Z)-(5-fluoro-2-carbonylindole-3-ylidene)methyl)-2,4-dimethyl-1H-pyrrol-3-yl)-3-(4-methylpiperazin-1-yl) propanamide]", "values": [{"measurement": "Tumor volume (mm^3)", "setting": "[1]; Day 0 after administration, 20mg/kg PO QD", "result": "100±4", "unit": "mm^3"}, {"measurement": "Tumor volume (mm^3)", "setting": "[1]; Day 2 after administration, 20mg/kg PO QD", "result": "141±22", "unit": "mm^3"}, {"measurement": "Tumor volume (mm^3)", "setting": "[1]; Day 4 after administration, 20mg/kg PO QD", "result": "244±35", "unit": "mm^3"}, {"measurement": "Tumor volume (mm^3)", "setting": "[1]; Day 6 after administration, 20mg/kg PO QD", "result": "319±55", "unit": "mm^3"}, {"measurement": "TGI", "setting": "[1]; 20 mg/kg PO QD, p = 0.003", "result": 47.25, "unit": "%"}, {"measurement": "Tumor volume (mm^3)", "setting": "[1]; Day 8 after administration, 20mg/kg PO QD, listed as Compound of formula (I), 20 mg/kg", "result": "483 ±93", "unit": "mm^3"}, {"measurement": "Tumor volume (mm^3)", "setting": "[1]; Day 8 after administration, 20mg/kg PO QD, listed as compound of formula (I), 20 mg/kg", "result": 483, "unit": "mm^3"}, {"measurement": "mass decreased compared with the baseline", "setting": "canine mast cell tumor; Case 1 Golden Retriever, 3.07 mg/kg, 14 days (October 17)", "result": 12, "unit": "%"}, {"measurement": "recurrence of the mass", "setting": "canine mast cell tumor; Case 1 Golden Retriever, after excision, 2.63 mg/kg, postoperative days 47, 82, 117 and 145", "result": "no recurrence of the mass was seen on the skin"}, {"measurement": "survival period", "setting": "canine mast cell tumor; Case 1 Golden Retriever, as of March 28, 2022, 66 doses", "result": "greater than 176 days"}, {"measurement": "total survival period", "setting": "canine mast cell tumor; Case 2 Tibetan mastiff, 2.84 mg/kg, died September 18, 2021", "result": 117, "unit": "days"}, {"measurement": "mass on the cephalic side of the vulva", "setting": "canine mast cell tumor; Case 3 Labrador, 2.42 mg/kg, after 14 days, non-target lesion", "result": "significantly reduced"}, {"measurement": "survival period", "setting": "canine mast cell tumor; Case 3 Labrador, as of April 17, 2022, medication 51 times", "result": "greater than 126 days"}, {"measurement": "enlargement of the mass on the cephalic side of the vulva", "setting": "canine mast cell tumor; Case 3 Labrador, day 42 and day 77 of treatment, non-target lesion", "result": "No enlargement"}, {"measurement": "survival period", "setting": "canine mast cell tumor; Case 4 Golden Retriever, 2.3-2.4 mg/kg, still under therapy", "result": "greater than 259 days"}, {"measurement": "Nasal ultrasound", "setting": "canine mast cell tumor; Case 4 Golden Retriever, re-examined August 7", "result": "subcutaneous mass accompanied by invasive changes in adjacent turbinate bone"}, {"measurement": "Nasal ultrasound", "setting": "canine mast cell tumor; Case 4 Golden Retriever, re-examined June 6", "result": "subcutaneous mass is suspected of invading the nasal cavity"}, {"measurement": "blood in urine (treatment-related clinical adverse reaction)", "setting": "[2]; 14 dogs, 2.0 mg/kg to 3.25 mg/kg orally once every other day, n=1, occasionally", "result": 7.1, "unit": "%"}, {"measurement": "vomiting (treatment-related clinical adverse reaction)", "setting": "[2]; 14 dogs, 2.0 mg/kg to 3.25 mg/kg orally once every other day, n=3", "result": 21.4, "unit": "%"}, {"measurement": "blood in stool (treatment-related clinical adverse reaction)", "setting": "[2]; [4]", "result": 28.6, "unit": "%"}, {"measurement": "decreased appetite (treatment-related clinical adverse reaction)", "setting": "[2]; [4]", "result": 28.6, "unit": "%"}, {"measurement": "diarrhea (treatment-related clinical adverse reaction)", "setting": "[2]; 14 dogs, 2.0 mg/kg to 3.25 mg/kg orally once every other day, n=9", "result": 64.3, "unit": "%"}, {"measurement": "grade 3 or 4 adverse reactions", "setting": "[2]; 14 dogs, VCOG-CTCAE v1.1", "result": "No grade 3 or 4 adverse reactions were observed"}, {"measurement": "blood routine and serum biochemistry", "setting": "[2]; Case 2 Tibetan mastiff, 2.84 mg/kg, June 21", "result": "no obvious abnormality was seen compared with the baseline"}, {"measurement": "adverse effects after administration", "setting": "[2]; Case 4 Golden Retriever, stage I, no c-kit mutation, 2.4 mg/kg from January 2", "result": "no significant adverse effects were observed"}, {"measurement": "adverse reactions after medication", "setting": "[2]; Case 4 Golden Retriever, 2.3 mg/kg from April 10 and from June 6", "result": "no obvious adverse reactions occurred after medication"}, {"measurement": "adverse reactions after taking the medicine", "setting": "[2]; Case 4 Golden Retriever, continued at 2.4mg/kg from February 13", "result": "symptoms of soft stool and diarrhea occurred"}, {"measurement": "blood routine and serum biochemistry", "setting": "[2]; Case 4 Golden Retriever, re-examined February 13, April 10, June 6 (August 7: blood routine only)", "result": "no obvious abnormalities were found"}, {"measurement": "adverse reactions after medication", "setting": "[2]; Case 5 Golden Retriever, 2.25 mg/kg from October 15", "result": "no obvious adverse reactions occurred after medication"}, {"measurement": "adverse reactions during treatment", "setting": "[2]; Case 5 Golden Retriever, 2.75 mg/kg, reported at October 15", "result": "Thin and watery stools occurred during a period"}, {"measurement": "adverse reactions after dosing", "setting": "[2]; Case 5 Golden Retriever, 3.25 mg/kg from September 3", "result": "soft stools appeared once after dosing"}, {"measurement": "adverse reactions after dosing", "setting": "[2]; Case 5 Golden Retriever, dosage adjusted to 2.75 mg/kg on September 7", "result": "no significant adverse reactions after dosing"}, {"measurement": "IC50", "setting": "[3]", "result": 474, "unit": "nM"}]}]}
